Assay results: ChEMBL document CHEMBL6114951, “Discovery of 3-amide-pyrimidine-based derivatives as potential fms-like tyrosine receptor kinase 3 (FLT3) inhibitors for treating acute myelogenous leukemia” (Bioorg Med Chem Lett, 2025)
Active and inactive are the calls of the source. The rule behind the calls is not given here.

Columns and labels:
[1] = test system: MV4-11; assay: cells; conditions: Homo sapiens
Description: Antiproliferative activity against human MV4-11 cells by CCK-8 assay

[2] = test system: HCT-116; assay: cells; conditions: Homo sapiens
Description: Antiproliferative activity against human HCT-116 cells by CCK-8 assay

[3] = test system: A549; assay: cells; conditions: Homo sapiens
Description: Antiproliferative activity against human A549 cells by CCK-8 assay

[4] = test system: MV4-11; assay: Cell cycle arrest in human MV4-11 cells assessed as accumulation at G2-phase at 0.2 uM measured after 24 hrs by propidium iodide staining based flow cytometry (reference value: 8.87%); type: functional
[5] = test system: MV4-11; assay: Cell cycle arrest in human MV4-11 cells assessed as accumulation at G1-phase at 0.2 uM measured after 24 hrs by propidium iodide staining based flow cytometry (reference value: 70.31%); type: functional
[6] = test system: MV4-11; assay: Induction of mitochondrial membrane potential loss in human MV4-11 cells assessed as cells with low MMP (monomers) at 0.2 uM measured after 24 hrs by JC-1 staining based flow cytometry (reference value: 2.9%); type: functional
[7] = test system: MV4-11; assay: Induction of apoptosis in human MV4-11 cells assessed as necrotic cells at 0.2 uM measured after 24 hrs by Annexin V-FITC/propidium iodide staining based flow cytometry (reference value: 0.2%); type: functional
[8] = test system: MV4-11; assay: Cell cycle arrest in human MV4-11 cells assessed as accumulation at S-phase at 0.2 uM measured after 24 hrs by propidium iodide staining based flow cytometry (reference value: 20.83%); type: functional
[9] = test system: MV4-11; assay: Induction of apoptosis in human MV4-11 cells assessed as early apoptotic cells at 0.2 uM measured after 24 hrs by Annexin V-FITC/propidium iodide staining based flow cytometry (reference value: 5.2%); type: functional
[10] = Effect on total ERK expression in human MV4-11 cells at 0.2 uM measured after 24 hrs by Western blot analysis; type: toxicity, cell-based; conditions: mv4-11, 24 h
[11] = biological target: Mast/stem cell growth factor receptor Kit (Homo sapiens, UniProt P10721)
Chain of Mast/stem cell growth factor receptor Kit (P10721 whole entry): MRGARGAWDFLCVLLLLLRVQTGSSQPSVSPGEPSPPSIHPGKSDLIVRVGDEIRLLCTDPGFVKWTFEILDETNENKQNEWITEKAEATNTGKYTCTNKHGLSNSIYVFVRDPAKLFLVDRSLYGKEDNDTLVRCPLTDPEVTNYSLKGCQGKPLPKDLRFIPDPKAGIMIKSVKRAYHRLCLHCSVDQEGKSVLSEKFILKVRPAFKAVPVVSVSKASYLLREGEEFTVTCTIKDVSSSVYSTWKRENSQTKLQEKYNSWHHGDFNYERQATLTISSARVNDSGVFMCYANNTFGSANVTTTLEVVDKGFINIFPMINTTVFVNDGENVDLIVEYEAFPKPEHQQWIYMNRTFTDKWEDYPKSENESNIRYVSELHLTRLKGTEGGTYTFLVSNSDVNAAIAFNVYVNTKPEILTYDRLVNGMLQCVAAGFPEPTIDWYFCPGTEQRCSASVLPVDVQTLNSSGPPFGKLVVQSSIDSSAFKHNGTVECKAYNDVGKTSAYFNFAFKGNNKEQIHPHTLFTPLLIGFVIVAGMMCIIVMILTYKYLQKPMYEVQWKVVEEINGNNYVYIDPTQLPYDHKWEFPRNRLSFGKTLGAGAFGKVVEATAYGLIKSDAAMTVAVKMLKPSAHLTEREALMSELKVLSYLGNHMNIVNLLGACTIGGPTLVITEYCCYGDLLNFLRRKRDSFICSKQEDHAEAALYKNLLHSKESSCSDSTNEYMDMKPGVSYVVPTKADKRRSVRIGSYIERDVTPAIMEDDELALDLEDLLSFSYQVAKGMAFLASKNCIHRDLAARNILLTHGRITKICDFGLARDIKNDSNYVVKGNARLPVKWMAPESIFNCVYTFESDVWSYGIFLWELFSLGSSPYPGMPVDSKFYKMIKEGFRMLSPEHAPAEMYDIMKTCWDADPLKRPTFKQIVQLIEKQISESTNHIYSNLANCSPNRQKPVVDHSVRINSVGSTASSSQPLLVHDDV

[12] = test system: MV4-11; assay: Induction of apoptosis in human MV4-11 cells assessed as viable cells at 0.2 uM measured after 24 hrs by Annexin V-FITC/propidium iodide staining based flow cytometry (reference value: 92.7%); type: functional; conditions: read-out: Activity
[13] = Effect on total AKT expression in human MV4-11 cells at 0.2 uM measured after 24 hrs by Western blot analysis; type: toxicity, cell-based; conditions: mv4-11, 24 h
[14] = test system: MV4-11; assay: Induction of mitochondrial membrane potential loss in human MV4-11 cells assessed as cells with high MMP (aggregates) at 0.2 uM measured after 24 hrs by JC-1 staining based flow cytometry (reference value: 97%); type: functional
[15] = in vitro; conditions: human, HEK293T cells
Description: Cytotoxicity against HEK293T cells by CCK-8 assay

[16] = Effect on total STAT5 expression in human MV4-11 cells at 0.2 uM measured after 24 hrs by Western blot analysis; type: toxicity, cell-based; conditions: mv4-11, 24 h
[17] = Effect on total FLT3 expression in human MV4-11 cells at 0.2 uM measured after 24 hrs by Western blot analysis; type: toxicity, cell-based; conditions: mv4-11, 24 h
[18] = test system: MV4-11; assay: Induction of apoptosis in human MV4-11 cells assessed as late apoptotic cells at 0.2 uM measured after 24 hrs by Annexin V-FITC/propidium iodide staining based flow cytometry (reference value: 2%); type: functional
[19] = test system: MV4-11; assay: Induction of apoptosis in human MV4-11 cells assessed as necrotic cells at 2 uM measured after 24 hrs by Annexin V-FITC/propidium iodide staining based flow cytometry (reference value: 0.2%); type: functional
[20] = test system: MV4-11; assay: Induction of apoptosis in human MV4-11 cells assessed as viable cells at 5 uM measured after 24 hrs by Annexin V-FITC/propidium iodide staining based flow cytometry (reference value: 92.7%); type: functional; conditions: read-out: Activity
[21] = test system: MV4-11; assay: Induction of mitochondrial membrane potential loss in human MV4-11 cells assessed as cells with high MMP (aggregates) at 2 uM measured after 24 hrs by JC-1 staining based flow cytometry (reference value: 97%); type: functional
[22] = test system: MV4-11; assay: Cell cycle arrest in human MV4-11 cells assessed as accumulation at G2-phase at 2 uM measured after 24 hrs by propidium iodide staining based flow cytometry (reference value: 8.87%); type: functional
[23] = test system: MV4-11; assay: Cell cycle arrest in human MV4-11 cells assessed as accumulation at G1-phase at 2 uM measured after 24 hrs by propidium iodide staining based flow cytometry (reference value: 70.31%); type: functional
[24] = test system: MV4-11; assay: Induction of apoptosis in human MV4-11 cells assessed as viable cells at 2 uM measured after 24 hrs by Annexin V-FITC/propidium iodide staining based flow cytometry (reference value: 92.7%); type: functional; conditions: read-out: Activity
[25] = test system: MV4-11; assay: Induction of apoptosis in human MV4-11 cells assessed as early apoptotic cells at 2 uM measured after 24 hrs by Annexin V-FITC/propidium iodide staining based flow cytometry (reference value: 5.2%); type: functional
[26] = test system: MV4-11; assay: Induction of apoptosis in human MV4-11 cells assessed as late apoptotic cells at 5 uM measured after 24 hrs by Annexin V-FITC/propidium iodide staining based flow cytometry (reference value: 2%); type: functional
[27] = test system: MV4-11; assay: Cell cycle arrest in human MV4-11 cells assessed as accumulation at S-phase at 10 uM measured after 24 hrs by propidium iodide staining based flow cytometry (reference value: 20.83%); type: functional
[28] = test system: MV4-11; assay: Induction of mitochondrial membrane potential loss in human MV4-11 cells assessed as cells with high MMP (aggregates) at 10 uM measured after 24 hrs by JC-1 staining based flow cytometry (reference value: 97%); type: functional
[29] = test system: MV4-11; assay: Induction of apoptosis in human MV4-11 cells assessed as late apoptotic cells at 2 uM measured after 24 hrs by Annexin V-FITC/propidium iodide staining based flow cytometry (reference value: 2%); type: functional
[30] = biological target: c-Kit (Homo sapiens, UniProt P10721); assay: Inhibition of c-Kit (unknown origin) at 100 uM relative to control; type: toxicity
Chain of c-Kit (P10721 whole entry): as above

[31] = test system: MV4-11; assay: Induction of mitochondrial membrane potential loss in human MV4-11 cells assessed as cells with low MMP (monomers) at 2 uM measured after 24 hrs by JC-1 staining based flow cytometry (reference value: 2.9%); type: functional
[32] = test system: MV4-11; assay: Induction of apoptosis in human MV4-11 cells assessed as necrotic cells at 5 uM measured after 24 hrs by Annexin V-FITC/propidium iodide staining based flow cytometry (reference value: 0.2%); type: functional
[33] = test system: MV4-11; assay: Induction of morphological changes in human MV4-11 cells assessed as cell wrinkling; type: functional, cell-based
[34] = test system: MV4-11; assay: Induction of morphological changes in human MV4-11 cells assessed as cell fragmentation; type: functional, cell-based
[35] = test system: MV4-11; assay: Induction of apoptosis in human MV4-11 cells assessed as early apoptotic cells at 5 uM measured after 24 hrs by Annexin V-FITC/propidium iodide staining based flow cytometry (reference value: 5.2%); type: functional
[36] = test system: MV4-11; assay: Induction of mitochondrial membrane potential loss in human MV4-11 cells assessed as cells with low MMP (monomers) at 10 uM measured after 24 hrs by JC-1 staining based flow cytometry (reference value: 2.9%); type: functional
[37] = test system: MV4-11; assay: Cell cycle arrest in human MV4-11 cells assessed as accumulation at G1-phase at 10 uM measured after 24 hrs by propidium iodide staining based flow cytometry (reference value: 70.31%); type: functional
[38] = test system: MV4-11; assay: Cell cycle arrest in human MV4-11 cells assessed as accumulation at G2-phase at 10 uM measured after 24 hrs by propidium iodide staining based flow cytometry (reference value: 8.87%); type: functional
[39] = test system: MV4-11; assay: Cell cycle arrest in human MV4-11 cells assessed as accumulation at S-phase at 2 uM measured after 24 hrs by propidium iodide staining based flow cytometry (reference value: 20.83%); type: functional
[40] = test system: MV4-11; assay: Cell cycle arrest in human MV4-11 cells assessed as increase in accumulation at G0/G1-phase measured after 24 hrs by propidium iodide staining based flow cytometry; type: functional; conditions: dose 0.2-10 µM
[41] = test system: MV4-11; assay: Induction of mitochondrial membrane potential loss in human MV4-11 cells measured after 24 hrs by JC-1 staining based flow cytometry; type: functional, cell-based; conditions: dose 0.2-10 µM
[42] = test system: MV4-11; assay: Induction of apoptosis in human MV4-11 cells measured after 24 hrs by Annexin V-FITC/propidium iodide staining based flow cytometry; type: functional, cell-based; conditions: dose 0.2-5 µM

SMILES: CN1CCC(N(C)c2ncc(C#N)c(Nc3ccc(Oc4ccccc4)cc3)n2)CC1
- IC50 [1]: 2.09 µM
- IC50 [2]: 5.99 µM
- IC50 [3]: 12.5 µM

SMILES: CN1CCC(Nc2nc(Nc3ccc(Oc4ccccc4)cc3)c3c(=O)[nH]cc(Br)c3n2)CC1 [DENFIVONTINIB]
- Activity [4]: 4.11%
- Activity [5]: 89.36%
- Activity [6]: 14.6%
- IC50 [1]: 0.003 µM
- Activity [7]: 0.7%
- Activity [8]: 6.52%
- Activity [9]: 49.6%
- Activity [10]: Non-toxic
- IC50 [2]: 3.13 µM
- IC50 [11]: 0.0038 µM
- viability at 0.2 µM [12]: 15.8%
- Activity [13]: Non-toxic
- IC50 [3]: 0.14 µM
- Activity [14]: 85.1%
- IC50 [15]: 9.67 µM
- Activity [16]: Non-toxic
- Activity [17]: Non-toxic
- Activity [18]: 33.9%

SMILES: CN1CCC(Nc2ncc(C(N)=O)c(Nc3ccc(Oc4ccccc4)cc3)n2)CC1
- IC50 [1]: 2.09 µM
- IC50 [2]: 1.9 µM
- IC50 [3]: 2.88 µM

SMILES: CCNC(=O)c1c(C)nc(NC2CCN(C)CC2)nc1Nc1ccc(Oc2ccccc2)cc1
- IC50 [1]: 5.03 µM
- IC50 [2]: 23.4 µM
- IC50 [3]: 20 µM

SMILES: N#Cc1cnc(N2CCCC2)nc1Nc1ccc(Oc2ccccc2)cc1
- IC50 [1]: 30.9 µM
- IC50 [2]: > 50 µM
- IC50 [3]: > 50 µM

SMILES: N#Cc1cnc(NC2CCCC2)nc1Nc1ccc(Oc2ccccc2)cc1
- IC50 [1]: 35.2 µM
- IC50 [2]: > 50 µM
- IC50 [3]: > 50 µM

SMILES: CN1CCC(Nc2nc(Nc3ccc(Oc4ccccc4)cc3)c3ccccc3n2)CC1
- IC50 [1]: 5.13 µM
- IC50 [2]: 8.51 µM
- IC50 [3]: 4.05 µM

SMILES: CCOC(=O)c1c(C)nc(NC2CCN(C)CC2)nc1Nc1ccc(Oc2ccccc2)cc1
- IC50 [1]: 5.36 µM
- IC50 [2]: 1.35 µM
- IC50 [3]: 7.86 µM

SMILES: NC(=O)c1cnc(NC2CCCC2)nc1Nc1ccc(Oc2ccccc2)cc1
- IC50 [1]: 7.68 µM
- IC50 [2]: 23.3 µM
- IC50 [3]: 20 µM

SMILES: CN1CCC(Nc2ncc(C#N)c(Nc3ccc(Oc4ccccc4)cc3)n2)CC1
- IC50 [1]: 12.5 µM
- IC50 [2]: 8.99 µM
- IC50 [3]: > 50 µM

SMILES: CC(=O)N1CCC(Nc2nc(Nc3ccc(Oc4ccccc4)cc3)c3ccccc3n2)CC1
- IC50 [1]: 6.96 µM
- IC50 [2]: 24.2 µM
- IC50 [3]: 9.87 µM

SMILES: CC(C)N1CCC(Nc2ncc(C(N)=O)c(Nc3ccc(Oc4ccccc4)cc3)n2)CC1
- Activity [19]: 0.3%
- viability at 5 µM [20]: 11.7%
- Activity [4]: 4.45%
- Activity [21]: 94.9%
- Activity [22]: 5.41%
- Activity [5]: 75.47%
- Activity [23]: 82.96%
- Activity [6]: 3.8%
- viability at 2 µM [24]: 32.8%
- IC50 [1]: 0.59 µM
- Activity [7]: 0.3%
- Activity [25]: 50.5%
- Activity [26]: 35.8%
- Activity [27]: 4.39%
- Activity [8]: 20.08%
- Activity [9]: 15.1%
- Activity [28]: 86.6%
- Activity [29]: 16.4%
- IC50 [2]: 3.14 µM
- IC50 [11]: > 100 µM
- inhibition at 100 µM [30]: 17.5%
- Activity [31]: 5%
- Activity [32]: 0.8%
- viability at 0.2 µM [12]: 78.5%
- Activity [33]: Active
- Activity [34]: Active
- IC50 [3]: 7.73 µM
- Activity [35]: 51.7%
- Activity [36]: 13.1%
- Activity [37]: 89.91%
- Activity [38]: 5.7%
- Activity [14]: 96.2%
- Activity [39]: 11.9%
- Activity [40]: Dose-dependent-effect
- IC50 [15]: 40.2 µM
- Activity [41]: Dose-dependent-effect
- Activity [42]: Dose-dependent-effect
- Activity [18]: 6%

SMILES: CC(C)N1CCC(Nc2ncc(C#N)c(Nc3ccc(Oc4ccccc4)cc3)n2)CC1
- IC50 [1]: 7.19 µM
- IC50 [2]: > 50 µM
- IC50 [3]: > 50 µM

SMILES: Cc1nc(NC2CCN(C)CC2)nc(Nc2ccc(Oc3ccccc3)cc2)c1C(=O)O
- IC50 [1]: > 50 µM
- IC50 [2]: > 50 µM
- IC50 [3]: > 50 µM

SMILES: CN1CCC(N(C)c2ncc(C(N)=O)c(Nc3ccc(Oc4ccccc4)cc3)n2)CC1
- IC50 [1]: 0.66 µM
- IC50 [2]: 3.93 µM
- IC50 [3]: 7.67 µM

SMILES: NC(=O)c1cnc(N2CCCC2)nc1Nc1ccc(Oc2ccccc2)cc1
- IC50 [1]: 35.8 µM
- IC50 [2]: > 50 µM
- IC50 [3]: 10.6 µM
